Several values for one entry are separate records, joined by “and”; a condition that tells them apart may be missing. Equal entries are not always repeated.
Experiments:
[1] = system: APP/PS1 mice; assay: Morris water maze test (Fig 6k-q); type: in vivo, mouse; set-up: Morris water maze learning curve (Figure 6k) / Morris water maze learning curve (Figure 6k), group mean (평균) / Morris water maze, Non-Target quadrant (Figure 6l) / Morris water maze, Target quadrant (Figure 6l) / Morris water maze, A0 (Target quadrant) (Figure 6m) / Morris water maze, quadrant A1 (Figure 6m) / Morris water maze, quadrant A2 (Figure 6m) / Morris water maze, quadrant A3 (Figure 6m): unit not given here; conditions: for Morris water maze learning curve (Figure 6k), group mean (평균): AD/N-AS group mean; for Morris water maze learning curve (Figure 6k): AD/N-AS individual animals
Protocol: Transgenic mouse lines over-expressing the hAPP695swe (APP) and presenilin-1M146V (PS1) mutations were originated from GlaxoSmithKline (Harlow, UK)[32] and maintained as described previously. We purchased 5×FAD mice from Jackson Labs (Stock number. 34840-JAX). Because APP/PS1 and 5xFAD mice show sex differences in disease progression, we used only male mice. To examine possible therapeutic effect of N-AS and aspirin in APP/PS1 mice, the N-AS (30 mg kg^−1, Sigma-Aldrich, 01912) was injected daily s.c. for 8 weeks to 7-months-old APP/PS1 mice until the age of 9 months, and aspirin (2 mg kg^−1, Sigma-Aldrich, A5376)[33] was administrated orally to 7-months-old APP/PS1 mice for 8 weeks. […] Block randomization method was used to allocate the animals to experimental groups. To eliminate the bias, we were blinded in experimental progress such as data collection and data analysis. Mice were housed at temperature of 22 °C and a 12 h day/12 h night cycle with free access to tap water and food pellets. All protocols were approved by the Kyungpook National University Institutional Animal Care and Use Committee. We performed behavioral studies to assess spatial learning and memory in the Morris water maze as previously described[11],[31]. Animals were given four trials per day for 10 days to learn the task. At day 11, animals were given a probe trial in which the platform was removed. Fear conditioning was conducted by previously described techniques. On the conditioning day, mice were individually placed into the conditioning chamber. After a 60 s exploratory period, a tone (10 kHz, 70 dB) was delivered for 10 s; this served as the conditioned stimulus (CS). The CS co-terminated with the unconditioned stimulus (US), a scrambled electrical footshock (0.3 mA, 1 s). The CS-US pairing was delivered twice at a 20 s intertrial interval. On day 2, each mouse was placed in the fear-conditioning chamber containing the same exact context, but with no administration of a CS or foot shock. Freezing was analyzed for 5 min. On day 3, a mouse was placed in a test chamber that was different from the conditioning chamber. After a 60 s exploratory period, the tone was presented for 60 s without the footshock. The rate of freezing response of mice was used to measure the fear memory. The open field test was used for locomotion and anxious behaviors as previously described. The open field box consisted of a square box. Each animal was placed in the box for 10 min. Overall activity in the box was measured, and the amount of time and distance traveled in the center arena was noted. After each trial, the test chambers were cleaned with a damp towel and distilled water followed by 70% alcohol. The light-dark test was used for assessing the anxiety-like behavior as previously described. One chamber was brightly illuminated, whereas the other chamber was dark. Mice were placed into the dark chamber and allowed to move freely between the two chambers with the door open for 10 min. The total number of transitions, latency to first enter the light chamber, distance traveled, and time spent in each chamber were recorded.

[2] = system: APP/PS1 mice; assay: fear conditioning (Supplementary Fig 7e); type: in vivo, mouse; conditions: N-AS vs vehicle APP/PS1
Protocol: Transgenic mouse lines over-expressing the hAPP695swe (APP) and presenilin-1M146V (PS1) mutations were originated from GlaxoSmithKline (Harlow, UK)[32] and maintained as described previously. We purchased 5×FAD mice from Jackson Labs (Stock number. 34840-JAX). Because APP/PS1 and 5xFAD mice show sex differences in disease progression, we used only male mice. To examine possible therapeutic effect of N-AS and aspirin in APP/PS1 mice, the N-AS (30 mg kg^−1, Sigma-Aldrich, 01912) was injected daily s.c. for 8 weeks to 7-months-old APP/PS1 mice until the age of 9 months, and aspirin (2 mg kg^−1, Sigma-Aldrich, A5376)[33] was administrated orally to 7-months-old APP/PS1 mice for 8 weeks. […] Block randomization method was used to allocate the animals to experimental groups. To eliminate the bias, we were blinded in experimental progress such as data collection and data analysis. Mice were housed at temperature of 22 °C and a 12 h day/12 h night cycle with free access to tap water and food pellets. All protocols were approved by the Kyungpook National University Institutional Animal Care and Use Committee. […] Freezing was analyzed for 5 min. […] Overall activity in the box was measured, and the amount of time and distance traveled in the center arena was noted. […] The total number of transitions, latency to first enter the light chamber, distance traveled, and time spent in each chamber were recorded.

[3] = APP/PS1 + N-AS, individual animals

With CCCCCCCCCCCCC/C=C/[C@@H](O)[C@H](CO)NC(C)=O [N-AS, N-((2S,3R,E)-1,3-Dihydroxyoctadec-4-en-2-yl)acetamide] the “Morris water maze, A0 (Target quadrant) (Figure 6m)” value [1, 3] was 14.5 and 35 and 17.5 and 31.5 and 19.5 and 29.5 and 37.5 and 7.5 and 9.5 and 20 and 10 and 18 and 24 and 10.5 and 30.5 and 43, the “Morris water maze, Non-Target quadrant (Figure 6l)” value [1, 3] was 15.1667 and 8.333 and 14.1667 and 9.5 and 13.5 and 10.1667 and 7.5 and 17.5 and 16.8333 and 13.3333 and 16.6667 and 14 and 12 and 16.5 and 9.833 and 5.667 and the “Morris water maze, Target quadrant (Figure 6l)” value [1, 3] was 14.5 and 35 and 17.5 and 31.5 and 19.5 and 29.5 and 37.5 and 7.5 and 9.5 and 20 and 10 and 18 and 24 and 10.5 and 30.5 and 43. The “Morris water maze, quadrant A1 (Figure 6m)” value [1, 3] was 17.5 and 9 (2×) and 20 and 6.5 (2×) and 15.5 (2×) and 32 and 21 and 8.5 and 28 and 14 and 22 and 6 and 3, the “Morris water maze, quadrant A2 (Figure 6m)” value [1, 3] was 16 and 9.5 and 14 and 9 and 21.5 and 19 and 2 and 2.5 and 10 and 15 (2×) and 13.5 and 11.5 and 21 and 19.5 and 7 and the “Morris water maze, quadrant A3 (Figure 6m)” value [1, 3] was 12 and 6.5 (2×) and 8.5 and 13 and 10 and 5 (2×) and 18 and 19.5 and 16.5 and 7 (2×) and 14.5 and 9 and 4. For the same compound, the “memory formation, Morris water maze” value ([1]; N-AS vs vehicle APP/PS1) was “largely protected from this defect”, the “Morris water maze learning curve (Figure 6k), group mean (평균)” value (shortened to “Morris water maze learning curve … (평균)”) ([1]; day 1) was 42.2833 and the “Morris water maze learning curve (Figure 6k)” value ([1]; day 1) was 60 and 38.125 and 47.875 and 37.75 and 40.875 and 47.75 and 32.5 and 22.875 and 46 and 29.25 and 55.625. For the same compound, the “Morris water maze learning curve … (평균)” value ([1]; day 2) was 36.025, the “Morris water maze learning curve (Figure 6k)” value ([1]; day 2) was 40.25 and 39.875 and 60 and 24.625 and 34.625 and 51 and 16.875 and 15.75 and 46.75 and 19.875 and the “Morris water maze learning curve … (평균)” value ([1]; day 3) was 36.0583. The “Morris water maze learning curve (Figure 6k)” value ([1]; day 3) was 37.5 and 38.875 and 60 and 43.625 and 20.125 and 43.25 and 17.375 and 42 and 34.75 and 24.875, the “Morris water maze learning curve … (평균)” value ([1]; day 4) was 34.2583 and the “Morris water maze learning curve (Figure 6k)” value ([1]; day 4) was 37.125 and 35.25 and 60 and 49.75 and 25.875 and 12 and 37.5 and 8.375 and 36.125. The “Morris water maze learning curve … (평균)” value ([1]; day 5) was 34.3417, the “Morris water maze learning curve (Figure 6k)” value ([1]; day 5) was 43.125 and 17.125 and 55.5 and 30.25 and 26.375 and 55.25 and 23.875 and 38.5 and 13.5 and 31.125 and the “Morris water maze learning curve … (평균)” value ([1]; day 6) was 32.3333. For the same compound, the “Morris water maze learning curve (Figure 6k)” value ([1]; day 6) was 28.5 and 25 and 50.375 and 17.375 and 47.125 and 52.75 and 16.25 and 60 and 13.25 and 35.25, the “Morris water maze learning curve … (평균)” value ([1]; day 7) was 30.9667 and the “Morris water maze learning curve (Figure 6k)” value ([1]; day 7) was 47.875 and 26.5 and 46.5 and 22.75 and 19 and 33.75 and 27.5 and 50.25 and 12.375 and 43. The “Morris water maze learning curve … (평균)” value ([1]; day 8) was 23.3417, the “Morris water maze learning curve (Figure 6k)” value ([1]; day 8) was 37.125 and 17.75 and 27.875 and 22.625 and 16.625 and 24.375 and 5.5 and 25.125 and 14.875 and 41 and the “Morris water maze learning curve … (평균)” value ([1]; day 9) was 22.7083. The “Morris water maze learning curve (Figure 6k)” value ([1]; day 9) was 32.25 and 21.375 and 17.5 and 11.125 and 27.125 and 18.875 and 12.75 and 21.625 and 50.375 and 15.875, the “Morris water maze learning curve … (평균)” value ([1]; day 10) was 21.95 and the “Morris water maze learning curve (Figure 6k)” value ([1]; day 10) was 23.625 and 39.125 and 23.5 and 13 and 13.75 and 40.75 and 22.25 and 36.625 and 14.75 and 17.75. For the same compound, the “memory formation, fear conditioning” value [2] was “largely protected from this defect”.
